Tests used:
CDK2/Cyclin E = CDK2/Cyclin E (Homo sapiens, UniProt P24941); assay: CDK2/Cyclin E biochemical phosphorylation assay (Caliper mobility shift); conditions: apparent IC50; 1.0 mM ATP or ATP Km; 1.25 nM enzyme; 25° C.; read-out: CDK2/cyclin E1 IC50
Procedure, shortened: (§1)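 7.5 µM 5-FAM-QSPKKG-CONH2 peptide phosphorylated by CDK2/Cyclin E (1.25 nM) or GST-CDK1/Cyclin B1 (1.5 nM) at 1.0 mM ATP or ATP Km, in HEPES pH 7.5, MgCl2, Brij-35, DTT, 1% DMSO, 25 °C to 10–20% conversion. EDTA stop; Caliper mobility-shift readout; apparent IC50 from percent activity vs log concentration.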

CDK1/Cyclin B1, GST-tag = biological target: T1, CDK1/Cyclin B1, GST-tag (Homo sapiens, UniProt P06493); assay: CDK1/Cyclin B1 biochemical phosphorylation assay (Caliper mobility shift); conditions: apparent IC50; 1.0 mM ATP or ATP Km; 1.5 nM enzyme; 25° C.
T1 construct: GST
T1 sequence (P06493 whole entry): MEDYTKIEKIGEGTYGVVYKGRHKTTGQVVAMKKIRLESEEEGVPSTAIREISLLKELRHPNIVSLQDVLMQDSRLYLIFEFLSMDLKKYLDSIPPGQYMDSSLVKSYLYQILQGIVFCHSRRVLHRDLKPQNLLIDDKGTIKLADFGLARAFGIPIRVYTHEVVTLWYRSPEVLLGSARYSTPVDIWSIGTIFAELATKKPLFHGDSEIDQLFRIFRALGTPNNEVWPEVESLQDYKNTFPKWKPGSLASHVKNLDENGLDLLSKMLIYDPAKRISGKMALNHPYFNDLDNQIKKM
T1 sequence (P14635 whole entry partner): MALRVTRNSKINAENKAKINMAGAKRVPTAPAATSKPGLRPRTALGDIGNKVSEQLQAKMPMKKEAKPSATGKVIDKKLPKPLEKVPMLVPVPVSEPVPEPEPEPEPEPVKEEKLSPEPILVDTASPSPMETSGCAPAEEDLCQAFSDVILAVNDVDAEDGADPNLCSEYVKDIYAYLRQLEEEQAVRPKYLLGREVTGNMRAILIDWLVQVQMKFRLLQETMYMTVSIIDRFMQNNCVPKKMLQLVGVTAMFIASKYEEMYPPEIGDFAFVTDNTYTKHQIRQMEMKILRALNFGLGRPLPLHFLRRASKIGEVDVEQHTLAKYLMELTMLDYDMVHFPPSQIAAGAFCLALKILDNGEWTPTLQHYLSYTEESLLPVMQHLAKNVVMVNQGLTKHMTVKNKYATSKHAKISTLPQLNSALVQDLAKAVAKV
Procedure, shortened: as §1

IC50 (CDK2/Cyclin E)	IC50 (CDK1/Cyclin B1, GST-tag)	SMILES
≤ 0.01 µM	0.1 to 0.5 µM	[2H]C([2H])(C1CCOCC1)n1ncc2ncc(Nc3cc(OC(F)F)[nH]n3)nc21 [Example 226, N-(5-(difluoromethoxy)-1H-pyrazol-3-yl)-1-((tetrahydro-2H-pyran-4-yl)methyl-d2)-1H-pyrazolo[3,4-b]pyrazin-6-amine]
≤ 0.01 µM	≥ 0.5 µM	COc1ncccc1[C@H](C)n1ncc2ncc(Nc3cc(OC(F)F)[nH]n3)nc21 [Example 59, (S)-N-(5-(difluoromethoxy)-1H-pyrazol-3-yl)-1-(1-(2-methoxypyridin-3-yl)ethyl)-1H-pyrazolo[3,4-b]pyrazin-6-amine]
≤ 0.01 µM	0.1 to 0.5 µM	Fc1nn(CC2CCOCC2)c2nc(Nc3cc(OC(F)F)[nH]n3)cnc12 [Example 117, N-(5-(difluoromethoxy)-1H-pyrazol-3-yl)-3-fluoro-1-((tetrahydro-2H-pyran-4-yl)methyl)-1H-pyrazolo[3,4-b]pyrazin-6-amine]
≤ 0.01 µM	0.1 to 0.5 µM	FC(F)Oc1cc(Nc2cnc3cnn(CC4CCCC4)c3n2)n[nH]1 [Example 104, 1-(cyclopentylmethyl)-N-(5-(difluoromethoxy)-1H-pyrazol-3-yl)-1H-pyrazolo[3,4-b]pyrazin-6-amine]
0.02 to 0.03 µM	≥ 0.5 µM	C[C@@H](C1CCOCC1)n1nc(C#N)c2ncc(Nc3cc(OC(F)F)[nH]n3)nc21 [Example 64, (S)-6-((5-(difluoromethoxy)-1H-pyrazol-3-yl)amino)-1-(1-(tetrahydro-2H-pyran-4-yl)ethyl)-1H-pyrazolo[3,4-b]pyrazine-3-carbonitrile]
0.03 to 0.1 µM	≥ 0.5 µM	N#CCC1(Cn2ncc3ncc(Nc4cc(OC(F)F)[nH]n4)nc32)CC1 [Example 132, 2-(1-((6-((5-(difluoromethoxy)-1H-pyrazol-3-yl)amino)-1H-pyrazolo[3,4-b]pyrazin-1-yl)methyl)cyclopropyl)acetonitrile]
0.02 to 0.03 µM	≥ 0.5 µM	FC(F)Oc1cc(Nc2cnc3cnn(C[C@@H]4CCCCO4)c3n2)n[nH]1 [Example 103, (S)-N-(5-(difluoromethoxy)-1H-pyrazol-3-yl)-1-((tetrahydro-2H-pyran-2-yl)methyl)-1H-pyrazolo[3,4-b]pyrazin-6-amine]
≤ 0.01 µM	≥ 0.5 µM	C[C@@H](c1cccnc1)n1nc(Cl)c2ncc(Nc3cc(OC(F)F)[nH]n3)nc21 [Example 61, (S)-3-chloro-N-(5-(difluoromethoxy)-1H-pyrazol-3-yl)-1-(1-(pyridin-3-yl)ethyl)-1H-pyrazolo[3,4-b]pyrazin-6-amine]
≤ 0.01 µM	≥ 0.5 µM	C[C@@H](C1COC1)n1ncc2ncc(Nc3cc(OC(F)F)[nH]n3)nc21 [Example 72, (S)-N-(5-(difluoromethoxy)-1H-pyrazol-3-yl)-1-(1-(oxetan-3-yl)ethyl)-1H-pyrazolo[3,4-b]pyrazin-6-amine]
0.01 to 0.02 µM	≥ 0.5 µM	COc1cc(Nc2cnc3cnn([C@H](C)C4CC4)c3n2)n[nH]1 [Example 73, (R)-1-(1-cyclopropylethyl)-N-(5-methoxy-1H-pyrazol-3-yl)-1H-pyrazolo[3,4-b]pyrazin-6-amine]
≤ 0.01 µM	≥ 0.5 µM	COc1cc(Nc2cnc3cnn(CC4CCOCC4)c3n2)n[nH]1 [Example 92, N-(5-methoxy-1H-pyrazol-3-yl)-1-((tetrahydro-2H-pyran-4-yl)methyl)-1H-pyrazolo[3,4-b]pyrazin-6-amine]
≤ 0.01 µM	0.1 to 0.5 µM	N#C[C@H]1C[C@H](Cn2ncc3ncc(Nc4cc(OC(F)F)[nH]n4)nc32)C1 (single isomer, unassigned) [Example 191, (1s,3s)-3-((6-((5-(difluoromethoxy)-1H-pyrazol-3-yl)amino)-1H-pyrazolo[3,4-b]pyrazin-1-yl)methyl)cyclobutane-1-carbonitrile or (1r,3r)-3-((6-((5-(difluoromethoxy)-1H-pyrazol-3-yl)amino)-1H-pyrazolo[3,4-b]pyrazin-1-yl)methyl)cyclobutane-1-carbonitrile]

— US11970498B2, “CDK2 inhibitors” (BLUEPRINT MEDICINES CORPORATION, priority 2021, dated 2024)
